Measurements: patent US20060135483A1, “Oxygen/nitrogen heterocycle inhibitors of tyrosine phosphatases” (priority 2004, published 2006)

Target: T1, PTP-1B (Homo sapiens, UniProt P18031)
T1 construct: PTP-1B (purified, 1 mg/mL) as a 1:250 dilution
T1 sequence (P18031 1-321 limits assumed): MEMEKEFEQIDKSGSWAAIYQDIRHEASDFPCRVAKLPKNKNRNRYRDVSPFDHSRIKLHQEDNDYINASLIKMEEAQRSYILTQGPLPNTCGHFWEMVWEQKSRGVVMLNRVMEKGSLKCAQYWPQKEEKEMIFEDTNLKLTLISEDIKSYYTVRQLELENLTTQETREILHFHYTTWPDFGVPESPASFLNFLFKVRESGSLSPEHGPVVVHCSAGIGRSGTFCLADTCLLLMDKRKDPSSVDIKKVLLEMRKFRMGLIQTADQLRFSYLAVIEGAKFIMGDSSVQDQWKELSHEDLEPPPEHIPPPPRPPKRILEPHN
Experiment: pNPP assay for tyrosine phosphatase inhibitory activity
Format: biochemical
Conditions: pNPP substrate 10 mM, 30° C., 10 minutes, absorbance at 405 nm
Method: The compounds provided herein are evaluated for biological activity as inhibitors of PTP-1B using, for example, a pNPP assay. Such an assay can be used to screen compounds for tyrosine phosphatase inhibitory activity as shown in Example 39.
A 5× stock of pNPP (p-nitrophenol phosphate) substrate is prepared as 50 mM pNPP in assay buffer. Various tyrosine phosphatase solutions can be prepared as follows: • PTP-1B (purified, 1 mg/mL) as a 1:250 dilution (to a final concentration of 4:g/mL); • TC-PTP (NEB, 1000 units in 100:L) as a 1:50 dilution (to a final concentration of 2 U/10:L (4:g/mL)); • CD45 (Calbiochem, 20:g, 400 units in 100: L) as a 1 :50 dilution (to a final concentration of 0.8 U/10:L (4:g/mL)); • LAR (NEB, 1000 units in 200:L) as a 1:75 dilution (to a final concentration of 0.7 U/10:L (4:g/mL)); and • PTP-β (UBI, #14-350, 10,000 units, 40:g/571:L) as a 1:17.5 dilution (to a final concentration of 10 U/10:L (4:g/mL));
The compound to be tested is prepared as 1:16.7 and 1:50 dilutions from stock in a total volume of 1 00:M DMSO to give final concentrations of 626 and 200:M. The reaction mixtures are prepared in a 96-well microtiter plate (on ice) as 55:L assay buffer, 5:L of the diluted compound (to a final concentration of 31.3 and 10:M), 20:L of the pNPP substrate solution (to a final concentration of 10 mM) and 20:L PTPase in assay buffer. The reactants are mixed well, the plate placed in a water bath at 30° C. and incubated for 10 minutes. The reaction is then terminated by adding 1 OO:L of 2M K2CO3 per well, and the absorbance is measured at 405 nm by conventional means.
Unless otherwise indicated, this assay was used to determine activity for the selected compounds whose activity is recorded in Table 1 and Table 2.

| SMILES | IC50 (Table 1) | IC50 (Table 2) |
| --- | --- | --- |
| COC(=O)c1cccc(Oc2cccc(-c3nnc(N(Cc4ccc(C(F)(F)P(=O)(O)O)c(Br)c4)c4ccc(Cl)c(Cl)c4)o3)c2)c1 [Example 24, 3-(3-{5-[[3-Bromo-4-(difluoro-phosphono-methyl)-benzyl]-(3,4-dichloro-phenyl)-amino]-[1,3,4]oxadiazol-2-yl}-phenoxy)-benzoic acid methyl ester] | 0.5 to 1 µM | – |
| O=C(O)C(Oc1cccc(-c2cnc(N(Cc3ccc(C(F)(F)P(=O)(O)O)c(Br)c3)c3ccc(Cl)c(Cl)c3)o2)c1)c1ccccc1 (centres unmarked) [Example 16, (3-{2-[[3-Bromo-4-(difluoro-phosphono-methyl)-benzyl]-(3,4-dichloro-phenyl)-amino]-oxazol-5-yl}-phenoxy)-phenyl-acetic acid] | < 0.1 µM | – |
| CS(=O)(=O)c1ccc(-c2cnc(N(Cc3ccc(C(F)(F)P(=O)(O)O)c(Cl)c3)c3ccc(F)cc3)o2)cc1 [{[2-Chloro-4-({(4-fluoro-phenyl)-[5-(4-methanesulfonyl-phenyl)-oxazol-2-yl]-amino}-methyl)-phenyl]-difluoro-methyl}-phosphonic acid] | – | 0.1 to 0.5 µM |
| O=C(O)c1ccc(Oc2ccc(-c3cnc(N(Cc4ccc(C(F)(F)P(=O)(O)O)c(Br)c4)c4ccc(Cl)c(Cl)c4)o3)cc2)cc1 [Example 12, 4-(4-{2-[[3-Bromo-4-(difluoro-phosphono-methyl)-benzyl]-(3,4-dichloro-phenyl)-amino]-oxazol-5-yl}-phenoxy)-benzoic acid] | 0.1 to 0.5 µM | – |
| CS(=O)(=O)c1ccc(-c2cnc(N(Cc3ccc(OCC(=O)O)c(Br)c3)c3ccc(Cl)c(Cl)c3)o2)cc1 [[2-Bromo-4-({(3,4-dichloro-phenyl)-[5-(4-methanesulfonyl-phenyl)-oxazol-2-yl]-amino}-methyl)-phenoxy]-acetic acid] | 10 to 100 µM | – |
| O=C(O)c1ccccc1-c1ccc(-c2cnc(N(Cc3ccc(C(F)(F)P(=O)(O)O)c(Br)c3)c3ccc(Cl)cc3)o2)cc1 [Example 29, 4′-{2-[[3-Bromo-4-(difluoro-phosphono-methyl)-benzyl]-(4-chlorophenyl)-amino]-oxazol-5-yl}-biphenyl-2-carboxylic acid] | – | 0.1 to 0.5 µM |
| O=C(O)c1ccc(CN(c2ccc(Cl)c(Cl)c2)c2nnc(-c3cccc(Oc4cccc(C(=O)O)c4)c3)o2)cc1 [Example 21] | 10 to 100 µM | – |
| CS(=O)(=O)c1ccc(-c2cnc(N(Cc3ccc(C(F)(F)P(=O)(O)O)c(Cl)c3)c3ccccc3)o2)cc1 [{[2-Chloro-4-({(5-(4-methanesulfonyl-phenyl)-oxazol-2-yl]-phenyl-amino}-methyl)-phenyl]-difluoro-methyl}-phosphonic acid] | – | 0.1 to 0.5 µM |
| CS(=O)(=O)c1ccc(-c2cnc(N(Cc3ccc(/C=C/C(=O)O)c(Br)c3)c3ccc(Cl)c(Cl)c3)o2)cc1 [3-[2-Bromo-4-({(3,4-dichloro-phenyl)-(5-(4-methanesulfonyl-phenyl)-oxazol-2-yl]-amino}-methyl)-phenyl]-acrylic acid] | 10 to 100 µM | – |
| CC(C)OC(=O)OC(C)OP(=O)(O)C(F)(F)c1ccc(CN(c2ccc(Cl)c(Cl)c2)c2ncc(-c3ccc(S(C)(=O)=O)cc3)o2)cc1Br (centres unmarked) [Example 33, {[2-Bromo-4-({(3,4-dichloro-phenyl)-[5-(4-methanesulfonyl-phenyl)-oxazol-2-yl]-amino}-methyl)-phenyl]-difluoro-methyl}-phosphonic acid mono-(1-isopropoxycarbonyloxy-ethyl) ester] | – | 10 to 100 µM |
| CCOP(=O)(O)C(F)(F)c1ccc(CN(c2ccc(Cl)c(Cl)c2)c2ncc(-c3ccc(S(C)(=O)=O)cc3)o2)cc1Br [Example 9, {[2-Bromo-4-({(3,4-dichloro-phenyl)-[5-(4-methanesulfonyl-phenyl)-oxazol-2-yl]-amino}-methyl)-phenyl]-difluoro-methyl}-phosphonic acid monoethyl ester] | 10 to 100 µM | – |
| COc1cccc(CN(Cc2ccc(C(F)(F)P(=O)(O)O)c(Br)c2)c2ncc(-c3ccc(S(C)(=O)=O)cc3)o2)c1 [[(2-Bromo-4-{[[5-(4-methanesulfonyl-phenyl)-oxazol-2-yl]-(3-methoxy-benzyl)-amino]-methyl}-phenyl)-difluoro-methyl]-phosphonic acid] | – | 0.1 to 0.5 µM |
| CCOP(=O)(OCC)C(F)(F)c1ccc(CN(c2ccc(Cl)c(Cl)c2)c2ncc(-c3ccc(S(C)(=O)=O)cc3)o2)cc1Br [Example 8, {[2-Bromo-4-({(3,4-dichloro-phenyl)-[5-(4-methanesulfonyl-phenyl)-oxazol-2-yl]-amino}-methyl)-phenyl]-difluoro-methyl}-phosphonic acid diethyl ester] | 10 to 100 µM | – |
| NC(=O)c1ccc(-c2cnc(N(Cc3ccc(C(F)(F)P(=O)(O)O)c(Br)c3)c3ccc(F)cc3)o2)cc1 [Example 37, [(2-Bromo-4-{[[5-(4-carbamoyl-phenyl)-oxazol-2-yl]-(4-fluoro-phenyl)-amino]-methyl}-phenyl)-difluoro-methyl]-phosphonic acid] | – | 0.1 to 0.5 µM |
| O=C(O)c1cccc(Oc2cccc(-c3nnc(N(Cc4ccc(C(F)(F)P(=O)(O)O)c(Br)c4)c4ccc(Cl)c(Cl)c4)o3)c2)c1 [Example 25, 3-(3-{5-[[3-Bromo-4-(difluoro-phosphono-methyl)-benzyl]-(3,4-dichloro-phenyl)-amino]-[1,3,4]oxadiazol-2-yl}-phenoxy)-benzoic acid] | 0.1 to 0.5 µM | – |
| COC(=O)c1ccccc1Oc1cccc(-c2cnc(N(Cc3ccc(C(F)(F)P(=O)(O)O)c(Br)c3)c3ccc(Cl)c(Cl)c3)o2)c1 [Example 14, 2-(3-{2-[[3-Bromo-4-(difluoro-phosphono-methyl)-benzyl]-(3,4-dichloro-phenyl)amino]-oxazol-5-yl}-phenoxy)-benzoic acid methyl ester] | 1 to 10 µM | – |
| COC(=O)c1ccc(CN(Cc2ccc(C(F)(F)P(=O)(O)O)cc2)c2nnc(-c3cccc(Oc4ccccc4)c3)o2)cc1 [4-({[4-(Difluoro-phosphono-methyl)-benzyl]-[5-(3-phenoxy-phenyl)-[1,3,4]oxadiazol-2-yl]-amino}-methyl)-benzoic acid methyl ester] | 10 to 100 µM | – |
| CS(=O)(=O)c1ccc(-c2cnc(N(Cc3ccc(C(F)(F)C(=O)O)cc3)c3ccc(Cl)c(Cl)c3)o2)cc1 [[4-({(3,4-Dichloro-phenyl)-[5-(4-methanesulfonyl-phenyl)-oxazol-2-yl]-amino}-methyl)-phenyl]-difluoro-acetic acid] | 10 to 100 µM | – |
| COC(=O)c1ccccc1-c1cccc(-c2cnc(N(Cc3ccc(C(F)(F)P(=O)(O)O)c(Br)c3)c3ccc(Cl)c(Cl)c3)o2)c1 [Example 19, 3′-{2-[[3-Bromo-4-(difluoro-phosphono-methyl)-benzyl]-(3,4-dichloro-phenyl)-amino]-oxazol-5-yl}-biphenyl-2-carboxylic acid methyl ester] | 1 to 10 µM | – |
| CC(C)(C)C(=O)OCOP(=O)(OCOC(=O)C(C)(C)C)C(F)(F)c1ccc(CN(c2ccc(F)cc2)c2ncc(-c3ccc(S(C)(=O)=O)cc3)o2)cc1Br [Example 35, 2,2-Dimethyl-propionic acid {[2-bromo-4-({(4-fluoro-phenyl)-[5-(4-methanesulfonylphenyl)-oxazol-2-yl]-amino}-methyl)-phenyl]-difluoro-methyl}-(2,2-dimethyl-propionyloxymethoxy)-phosphinoyloxymethyl ester] | – | 10 to 100 µM |
